Experimental data published in US10633409B2, “Bola-amphiphilic compounds and their uses for biomedical applications” (UNIVERSITE DE BORDEAUX, priority 2014, dated 2020).

Experiments:
[1] = Gelation test (tube inversion); assay type: physicochemical; details: aqueous dispersion 1.5 wt % in Milli-Q water, heated until dissolution (45° C.), cooled to room temperature
Method: The aqueous dispersions (Milli-Q water, 18 MΩ·cm^−1) containing 1.5 wt % of compounds 5 and 6 obtained in examples 1 and 2 were heated until dissolution (at 45° C.) and gradually allowed to cool to room temperature unless otherwise stated.

[2] = Sol-gel transition temperature (Tgel) by rheology; assay type: physicochemical; details: hydrogel 3% w/v, heated from 25 to 60° C. (3° C./min), oscillatory stress 5 Pa, 1 Hz
Method: The determination of gel-sol transition temperature can also be determinated by rheology. The hydrogel (3% product 6 of example 2, w/v) was heated progressively from 25 to 60° C. (3° C./min). The oscillatory stress applied was set to 5 Pa at a constant frequency (1 Hz). The sol-gel transition point was taken as the temperature at which the gel became liquid. This melting temperature is reached at the intersection of the viscoelastic moduli (G′ and G″). This value is of 46° C. which is compatible with the cell culture at the gel state (37° C.).

[3] = tested on: human mesenchymal stem cells (ASCs); assay: Cytotoxicity by MTT test (cell metabolic activity); assay type: cell-based
Method: (§1) Mesenchymal stem cells were isolated from human adipose tissue. Human subcutaneous fat was obtained from healthy patients aged 20 to 80 years old who underwent hip surgery in Bordeaux Pellegrin CHU (Bordeaux, France). Fat mass was separated from other tissues, washed with sterilized PBS, finely cut and incubated with 0.1% (w/v) collagenase type I (Worthington, Lakewood, N.J., USA) at 37° C. with gentle agitation for 1 h 30. After filtration and centrifugation, the top liquid layer was removed and the remaining Stromal Vascular Fraction (SVF) was treated for 10 min with ELB (Erythocyte Lysis Buffer; 155 mM NH4Cl (Sigma-Aldrich, St. Louis, Mo., USA), 5.7 mM K2HPO4, 7.4 mM K2HPO4-3H2O, 0.1 mm EDTA (all Sigma-Aldrich)), and then centrifuged. […]
The cytotoxicity of compound 6 was evaluated by the measurement of the cell metabolic activity (MTT assay). […]
MTT assay was performed after 72 h of incubation. […] Results were expressed as a percentage of the metabolic activity of the positive control. Absorbance was measured at a wavelength of 570 nm with background subtraction at 630 nm.
The cytotoxicity of compound 6 was determined by MTT test to measure the metabolic activity of human mesenchymal stem cells (ASCs) 48 hours after incubation with increasing concentrations of compound 6. […]

[4] = tested on: rat osteoblastic cells (A) or human ASCs (B); assay: Cytocompatibility by Alamar Blue metabolism in cells grown in compound 6-based gels; assay type: cell-based; details: compound 6-based gel 3% (w/v)
Method: as §1
Cell viability was also evaluated by using the Alamar Blue metabolic activity assay. […] After this time, the fluorescence was measured at wavelengths excitation 530 nm and emission 590 nm. Triplicate samples were analyzed for each experiment. […]
Cytocompatibility was determined by monitoring alamar blue metabolism in rat osteoblastic cells (A) or human ASCs (B) grown in compound 6-based gels. […]

hASCs or D1 = assay: Live/Dead staining (calcein-AM, ethidium homodimer) of cells seeded within gels; assay type: cell-based; details: cells seeded within gel 3% (w/v), at 2 weeks
Method: For all in vitro assays, the hydrogel obtained from compound 6 was prepared at a concentration of 3% (w/v). The compound 6 powder was solubilized in PBS 1× under agitation (900 rpm) at 25° C. during 45 minutes. Then, when the gel was formed, it was left at room temperature, without agitation, during 3 to 4 hours. To allow cell seeding, the gel was heated during 30 minutes at 55° C. Once the liquid solution was obtained, it was rapidly cooled down to 37° C. and thoroughly mixed with 10 μL cell suspension at a concentration of 1 million cells per mL of gel. Finally, the cellularized hydrogel was maintained under agitation (600 rpm), at 25° C. during 45 minutes. After this period, medium was been added (250 μL/tube) and tubes were incubated at controlled atmosphere (5% CO2, 37° C.)
[…] Cells seeded within gels were incubated for 1 h at 37° C. in Hank's medium supplemented with 1.25 μL calcein-AM and 5 μL EthD-1.

SMILES	gel formation (solid aggregate mass stable to inversion of the container) [1]	sol-gel transition temperature (Tgel), intersection of G′ and G″ [2] [°C]	concentrations up to which the compound is non toxic ([3]; MTT, human ASCs, tested 5 μM to 5 mM, value printed as approximate) [µM]	cytotoxicity (result in words) ([3]; summary of example 12)	cytocompatibility when used as cell culture medium [4]	Live/dead staining result (hASCs or D1)
Cc1cn([C@H]2C[C@H](O)[C@@H](Cn3cc(COCCCCCCCCCCCCOCc4cn(C[C@H]5O[C@@H](n6cc(C)c(=O)n(Cc7cn([C@@H]8O[C@H](CO)[C@@H](O)[C@H](O)[C@H]8O)nn7)c6=O)C[C@@H]5O)nn4)nn3)O2)c(=O)n(Cc2cn([C@@H]3O[C@H](CO)[C@@H](O)[C@H](O)[C@H]3O)nn2)c1=O [compound 6]	form gels	46	≤ 1000	not cytotoxic	god cytocompatibility	vast majority of green (living) cells
Cc1cn([C@H]2C[C@H](O)[C@@H](Cn3cc(COCCCCCCCCCCCCO)nn3)O2)c(=O)n(Cc2cn([C@@H]3O[C@H](CO)[C@@H](O)[C@H](O)[C@H]3O)nn2)c1=O [compound 5, 5′-[4-(12-hydroxydodecanyloxy)methyl)-1H-1,2,3-triazol-1-yl]-5′-deoxy-N3-(1-((β-D-glucopyranoside)-1H-1,2,3-triazol-4-yl)methyl thymidine]	form gels	–	–	–	–	–
